In one experiment the target is Human RPA (Homo sapiens (Human), UniProt P27694). Nature of the experiment: EMSA of inhibition of RPA binding to ssDNA. As to conditions: for IC50: 25 nM RPA, 34-base DNA, 4 parameter logistic fit, read-out: IC50 (μM) In vitro; for inhibition at 100 µM: read-out: inhibition at the highest concentration tested. On the procedure: Small molecule inhibitors were obtained from ChemDiv and resuspended in DMSO. Compound TDLR-505 was independently synthesized and structure confirmed by mass spectrometry analysis. Human RPA was purified using an E. coli over expression system as previously described (7). EMSAs were performed in 20 μL reactions containing 25 nM RPA, 25 nM 5′[^32P]-labeled 34-base […] DNA as previously described (7). The final concentration of DMSO was 1%.
(§1) Referring now to TABLE 1, the in vitro IC50 was determined by EMSA analysis as described in FIG. 1A. The cellular IC50 value was determined by treating H460 cells with the indicated compounds and analyzing annexinV/PI staining as described in Methods. The in vitro and cellular data was analyzed using standard 4 parameter logistic-curve. The IC50 values and standard error of the fit were determined from this analysis.
Referring now to FIGS. 2C, D and E, EMSA analysis of compound TDLR-505, briefly, increasing concentrations of compound TDRL-505 were pre-incubated with RPA and DNA binding activity was assessed via EMSA using a 34-base ssDNA substrate. Referring now to FIG. 2D, the average and standard deviation of each point are presented. The data was fit to a standard 4 parameter logistic curve with an N=4.
A general note: In EMSA bound probe runs differently from free probe, usually more slowly.

For the next experiment, the system named is H460 NSCLC cell line. Nature of the experiment: Annexin V/PI flow cytometry, induction of cell death. In kind it is cell-based, human. As to conditions: H460 cells; for IC50: Homo sapiens, NCI-H460, 48 hour exposure, annexinV/PI staining, read-out: IC50 (μM) Cellular. Here is the method: H460 cells were analyzed for apoptosis using an Annexin V-FITC/Propidium iodide (PI) Vybrant Apoptosis Assay Kit (Invitrogen), according to manufacturer's instructions. Cells were plated at a density of 1×10^4 cells per cm^2 and allowed to adhere for 24 hours and then treated with compound TDLR-505 for 48 hours. Following plating and treatment of H460 cells as described above, adherent and non-adherent cells were collected, processed, and analyzed on a BD FACScan flow cytometer. Data was analyzed using WinMDI software (http://facs.scripps.edu/software.html). Cell cycle analysis was performed by PI staining Briefly, cells were plated and treated with compound collected and then washed twice with PBS-EDTA supplemented with 1% BSA. Cells were fixed in 70% EtOH at −20° C. while vortexing followed by incubation on ice for 30 minutes. Cells were then collected and stained with PI solution (10 μg/mL PI and 25 μg/mL RNaseA in PBS-EDTA supplemented with 1% BSA). Cells were analyzed on a Becton Dickinson FACScan flow cytometer. Cells were gated and analyzed on a histogram with events plotted against the FL2-A parameter. Cell cycle distribution was analyzed using ModFit software. G2 arrest was induced by treatment with 0.8 μg/mL nocodazole for 12 hours (10). Cells were then washed with PBS and treated with either vehicle or compound TDLR-505 (100 μM). Cells were harvested and analyzed for cell cycle distribution as described above.
as §1
Referring now to FIGS. 4A, 4B, 4C and 4D, the effects of compound TDRL-505 on induction of cell death and cell cycle progression in a H460 NSCLC cell line was measured. Briefly, H460 cells were treated with compound TDRL-505 for 48 hours and analyzed for cell viability via staining with AnnexinV/PI and presented as dot plots (see FIG. 3A). Referring now to FIG. 4B, the data from FIG. 4A was quantified and the percentage of Annexin-/PI-cells (lower left quadrant), indicating live cells, was calculated. The average±SD (N=4) are presented and the data was fit to a 4-parameter logistic curve.
In general terms: In flow cytometry, cells or beads pass a laser one at a time.

In general, IC50 refers to the midpoint of a concentration-inhibition curve.

Chain of Human RPA (P27694 whole entry): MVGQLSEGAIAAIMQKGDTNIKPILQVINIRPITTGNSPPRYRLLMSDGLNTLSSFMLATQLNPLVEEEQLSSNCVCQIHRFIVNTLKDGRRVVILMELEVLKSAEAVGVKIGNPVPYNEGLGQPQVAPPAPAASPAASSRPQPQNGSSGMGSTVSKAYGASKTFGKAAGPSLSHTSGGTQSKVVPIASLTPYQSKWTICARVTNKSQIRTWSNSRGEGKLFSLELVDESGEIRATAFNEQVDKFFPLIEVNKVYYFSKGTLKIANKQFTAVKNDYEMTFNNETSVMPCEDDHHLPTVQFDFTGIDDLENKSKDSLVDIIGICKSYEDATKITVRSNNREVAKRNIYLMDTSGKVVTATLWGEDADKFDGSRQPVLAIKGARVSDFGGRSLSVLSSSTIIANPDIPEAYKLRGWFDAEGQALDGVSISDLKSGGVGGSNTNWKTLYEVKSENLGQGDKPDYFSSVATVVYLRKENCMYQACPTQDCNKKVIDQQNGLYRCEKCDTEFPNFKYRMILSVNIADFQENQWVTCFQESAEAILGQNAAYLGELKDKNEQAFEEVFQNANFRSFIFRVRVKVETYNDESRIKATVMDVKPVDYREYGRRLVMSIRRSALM
Chain of Human RPA (P15927 whole entry partner): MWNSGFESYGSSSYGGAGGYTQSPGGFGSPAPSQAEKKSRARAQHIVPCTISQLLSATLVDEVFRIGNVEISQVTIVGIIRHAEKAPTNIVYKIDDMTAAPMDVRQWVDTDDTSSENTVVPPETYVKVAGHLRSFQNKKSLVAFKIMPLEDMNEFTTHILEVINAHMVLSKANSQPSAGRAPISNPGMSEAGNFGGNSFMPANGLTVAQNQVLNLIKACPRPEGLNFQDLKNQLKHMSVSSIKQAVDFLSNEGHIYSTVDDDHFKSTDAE
Chain of Human RPA (P35244 whole entry partner): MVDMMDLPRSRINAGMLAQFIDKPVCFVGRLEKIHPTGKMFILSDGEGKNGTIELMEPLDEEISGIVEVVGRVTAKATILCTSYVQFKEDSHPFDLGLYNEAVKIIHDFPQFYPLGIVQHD

For the molecule `COc1ccc(-c2nn(-c3ccccc3)cc2C2CC(c3ccc(Br)cc3)=NN2C(=O)CCC(=O)O)cc1` (stereo not shown) [TDRL-523], on Human RPA, the IC50 is over 100 µM and the inhibition at 100 µM is 36%. The “inhibition of RPA DNA binding (in words)” value on Human RPA (full length RPA heterotrimer) is reported as “minimal inhibition”. In the experiment on H460 NSCLC cell line, the “cellular activity (in words)” value is recorded as “modest cellular activity” and the half-maximal inhibitory concentration (IC50) is 31 ± 5.2 µM.

Consider `Cc1ccc(C2=NN(C(=O)CCC(=O)O)C(c3cn(-c4ccccc4)nc3-c3ccc(C)cc3)C2)cc1` (stereo not shown) [TDRL-520], for which the concentration for half-maximal inhibition (IC50) came out at 20.3 ± 10.7 µM on Human RPA and 49.9 ± 2.5 µM with H460 NSCLC cell line.

For the molecule `CCN(CC)c1ccc(C2CC(c3ccc(Br)cc3)=NN2C(=O)CCC(=O)O)cc1` (stereo not shown) [TDRL-518], on Human RPA, the IC50 was over 100 µM and the inhibition at 100 µM was 9%.

Consider `Cc1ccc(-c2nn(-c3ccccc3)cc2C2CC(c3ccc(Br)cc3)=NN2C(=O)CCC(=O)O)cc1` (stereo not shown) [TDRL-522], for which the IC50 on Human RPA amounted to 56.1 ± 6.7 µM; in the experiment on H460 NSCLC cell line it was 38 ± 32 µM.

On to `COc1ccc(C2=NN(C(=O)CCC(=O)O)C(c3cn(-c4ccccc4)nc3-c3ccc(C)cc3)C2)cc1` (stereo not shown) [TDRL-521], for which the half-maximal inhibitory concentration (IC50) at Human RPA was determined as 71.7 ± 33.9 µM; with H460 NSCLC cell line, 56.9 ± 6.7 µM.

The record behind these values is patent US9533969B2, “Materials and method for inhibiting replication protein A and uses thereof” (Indiana University Research and Technology Corp., priority 2010, dated 2017).
